In ChEMBL document CHEMBL5247626, “In vitro and in vivo biological evaluation of newly synthesized multi-target 20(R)-panaxadiol derivatives for treating Alzheimer's disease” (Eur J Med Chem, 2022):
Active and inactive are the calls of the source. The calls are words filed in the database; no cut-off is given here.

How the values were obtained:
Mus musculus [1] = assay: Antialzheimer activity against amyloid beta (25 to 35)-induced cognitive deficit ICR mouse model assessed as increase in preferential index at 25 mg/kg,po observed after 24 hrs of administration by novel object recognition test; assay type: functional, organism-based
[2] = Cytotoxicity against human HepG2 cells assessed as cell viability at 120 uM incubated for 24 hrs by MTT assay; assay type: toxicity, cell-based; details: read-out: Activity
PC-12 [3] = assay: Cytotoxicity against rat PC12 cells assessed as decrease in cell viability at 120 uM incubated for 24 hrs by MTT assay; assay type: toxicity, cell-based; details: pc-12, 24 h
[4] = Half life in Sprague-Dawley rat at 10 mg/kg,iv measured at 0.083 to 24 hrs post administration by LC-MS/MS analysis; assay type: ADME, organism-based; details: in vivo, time 0.083-24 hrs
[5] = Permeability of the compound incubated for 4 hrs by PAMPA-BBB assay based HPLC analysis
PC-12 [6] = assay: Neuroprotective activity against rat PC12 cells assessed as reduction in amyloid beta (25 to 35)-induced cytotoxicity at 15 uM incubated for 4 hrs followed by amyloid beta (25 to 35) treatment for 24 hrs by MTT assay relative to control; assay type: functional; parameters: scale not given: the % may be the effect or the level left; details: time 28 hrs
PC-12 [7] = assay: Neuroprotective activity against amyloid beta (25 to 35)-induced rat PC12 cells assessed as decrease in beta-secretase protein expression level at 3.75 to 30 uM incubated for 30 mins followed by amyloid beta (25 to 35) addition and measured after 24 hrs by ELISA; assay type: functional, cell-based; details: dose 3.75-30 µM, time 24.5 hrs
HUVEC = assay: Cytotoxicity against human HUVEC cells assessed as effect on survival at < 60 uM incubated for 24 hrs by MTT assay; assay type: toxicity, cell-based
PC-12 [8] = assay: Neuroprotective activity against amyloid beta (25 to 35)-induced rat PC12 cells assessed as decrease in JNK phosphorylation level at 7.5 to 30 uM preincubated for 30 mins followed by amyloid beta (25 to 35) addition and measured after 24 hrs by western blot assay; assay type: functional, cell-based; details: dose 7.5-30 µM, time 24.5 hrs
PC-12 [9] = assay: Neuroprotective activity against amyloid beta (25 to 35)-induced rat PC12 cells assessed as decrease in NF-kappaB phosphorylation level at 7.5 to 30 uM preincubated for 30 mins followed by amyloid beta (25 to 35) addition and measured after 24 hrs by western blot assay; assay type: functional, cell-based; details: dose 7.5-30 µM, time 24.5 hrs
[10] = AUC (0-infinity) in Sprague-Dawley rat at 60 mg/kg,po measured at 0.25 to 24 hrs post administration by LC-MS/MS analysis; assay type: ADME, organism-based; parameters: dose 60 mg/kg, time 0.25-24 hrs, route po; details: in vivo
Mus musculus [11] = assay: Antialzheimer activity against amyloid beta (25 to 35)-induced cognitive deficit ICR mouse model assessed as increase in discrimination index at 25 mg/kg,po observed after 1 hr of administration by novel object recognition test; assay type: functional, organism-based
PC-12 [12] = assay: Neuroprotective activity against amyloid beta (25 to 35)-induced rat PC12 cells assessed as decrease in intracellular ROS level at 7.5 uM incubated for 24 hrs by DCFH-DA staining based flow cytometry assay; assay type: functional, cell-based
PC-12 [13] = assay: Neuroprotective activity against amyloid beta (25 to 35)-induced rat PC12 cells assessed as decrease in IL-1beta expression level at 7.5 to 30 uM preincubated for 30 mins followed by amyloid beta (25 to 35) addition and measured after 24 hrs by western blot assay; assay type: functional, cell-based; details: dose 7.5-30 µM, time 24.5 hrs
HepG2 = assay: Cytotoxicity against human HepG2 cells assessed as effect on survival at < 60 uM incubated for 24 hrs by MTT assay; assay type: toxicity, cell-based; details: hepg2, 24 h
[14] = Tmax in Sprague-Dawley rat at 60 mg/kg,po measured at 0.25 to 24 hrs post administration by LC-MS/MS analysis; assay type: ADME, organism-based; details: in vivo, time 0.25-24 hrs
[15] = C0 in Sprague-Dawley rat at 10 mg/kg,iv measured at 0.083 to 24 hrs post administration by LC-MS/MS analysis; assay type: ADME, organism-based; details: in vivo, time 0.083-24 hrs
[16] = AUC (0-infinity) in Sprague-Dawley rat at 10 mg/kg,iv measured at 0.083 to 24 hrs post administration by LC-MS/MS analysis; assay type: ADME, organism-based; parameters: dose 10 mg/kg, time 0.083-24 hrs, route iv; details: in vivo
Mus musculus [17] = assay: Antialzheimer activity against amyloid beta (25 to 35)-induced brain injury ICR mouse model assessed as attenuation of pathological change in cerebral cortex at 12.5 to 50 mg/kg,po administrated for 21 days by hematoxylin and eosin staining based microscopic analysis; assay type: functional, organism-based; details: dose 12.5-50 mg/kg, time 21.0 day
PC-12 [18] = assay: Neuroprotective activity against amyloid beta (25 to 35)-induced rat PC12 cells assessed as decrease in total tau protein expression level at 7.5 to 30 uM preincubated for 30 mins followed by amyloid beta (25 to 35) addition and measured after 24 hrs by western blot assay; assay type: functional, cell-based; details: dose 7.5-30 µM, time 24.5 hrs
PC-12 [19] = assay: Neuroprotective activity against amyloid beta (25 to 35)-induced rat PC12 cells assessed as decrease in tau hyperphosphorylation at Thr181 at 7.5 to 30 uM preincubated for 30 mins followed by amyloid beta (25 to 35) addition and measured after 24 hrs by western blot assay; assay type: functional, cell-based; details: dose 7.5-30 µM, time 24.5 hrs
PC-12 [20] = assay: Neuroprotective activity against amyloid beta (25 to 35)-induced rat PC12 cells assessed as decrease in p38 expression level at 7.5 to 30 uM preincubated for 30 mins followed by amyloid beta (25 to 35) addition and measured after 24 hrs by western blot assay; assay type: functional, cell-based; details: dose 7.5-30 µM, time 24.5 hrs
[21] = MRT (0 to t) in Sprague-Dawley rat at 10 mg/kg,iv measured at 0.083 to 24 hrs post administration by LC-MS/MS analysis; assay type: ADME, organism-based; details: in vivo, time 0.083-24 hrs
Mus musculus [22] = assay: Antialzheimer activity against amyloid beta (25 to 35)-induced cognitive deficit ICR mouse model assessed as increase in preferential index at 25 mg/kg,po observed after 1 hr of administration by novel object recognition test; assay type: functional, organism-based
[23] = Toxicity in ICR mouse assessed as pathological changes in liver at 12.5 to 50 mg/kg,po administrated for 20 days by hematoxylin and eosin staining based microscopic analysis; assay type: organism-based; details: in vivo, 480 h, dose 12.5-50 mg/kg, time 20 day
[24] = Toxicity in ICR mouse assessed as pathological changes in heart at 12.5 to 50 mg/kg,po administrated for 20 days by hematoxylin and eosin staining based microscopic analysis; assay type: organism-based; details: in vivo, 480 h, dose 12.5-50 mg/kg, time 20 day
[25] = Cytotoxicity against mouse Neuro2a cells assessed as cell viability at 120 uM incubated for 24 hrs by MTT assay; assay type: toxicity, cell-based; details: Neuro2a (N2a) cells, read-out: Activity
[26] = MRT (0 to t) in Sprague-Dawley rat at 60 mg/kg,po measured at 0.25 to 24 hrs post administration by LC-MS/MS analysis; assay type: ADME, organism-based; details: in vivo, time 0.25-24 hrs
Mus musculus [27] = assay: Antialzheimer activity against amyloid beta (25 to 35)-induced cognitive deficit ICR mouse model assessed as increase in preferential index at 50 mg/kg,po observed after 24 hrs of administration by novel object recognition test; assay type: functional, organism-based
PC-12 [28] = assay: Neuroprotective activity against amyloid beta (25 to 35)-induced rat PC12 cells assessed as decrease in TNF-alpha expression level at 7.5 to 30 uM preincubated for 30 mins followed by amyloid beta (25 to 35) addition and measured after 24 hrs by western blot assay; assay type: functional, cell-based; details: dose 7.5-30 µM, time 24.5 hrs
[29] = Oral bioavailability in Sprague-Dawley rat at 60 mg/kg measured after 0.25 to 24 hrs post administration by LC-MS/MS analysis; assay type: ADME, organism-based; details: in vivo, time 0.25-24 hrs

half-life [4]: 2.6 h
Papp at 4 h [5]: 26.1 ×10⁻⁶ cm/s
AUC(0-inf) [10]: 326 ng·h/mL
Tmax [14]: 1.33 h
C0 [15]: 237 µg/mL
AUC(0-inf) [16]: 40700 ng·h/mL
MRT last [21]: 0.426 h
MRT last [26]: 2.24 h
bioavailability [29]: 0.2%
SMILES: CC1(C)CCC[C@](C)([C@H]2CC[C@]3(C)[C@@H]2[C@H](O)C[C@@H]2[C@@]4(C)CC[C@H](OC(=O)NCc5ccccc5)C(C)(C)[C@@H]4CC[C@]23C)O1
Activity (Mus musculus [1]): Active
viability at 24 h, 120 µM [2]: > 50%
Activity (PC-12 [3]): Toxic
Activity (PC-12 [6]): 73.01%
Activity (PC-12 [7]): Active
Activity (HUVEC): Non-Toxic
Activity (PC-12 [8]): Active
Activity (PC-12 [9]): Active
Activity (Mus musculus [11]): inactive
Activity (PC-12 [12]): Active
Activity (PC-12 [13]): Active
Activity (HepG2): Non-Toxic
Activity (Mus musculus [17]): Active
Activity (PC-12 [18]): Active
Activity (PC-12 [19]): Active
Activity (PC-12 [20]): Active
Activity (Mus musculus [22]): inactive
Activity [23]: Non-Toxic
Activity [24]: Non-Toxic
viability at 24 h, 120 µM [25]: > 50%
Activity (Mus musculus [27]): Active
Activity (PC-12 [28]): Active
